Data set [1] relates to Caco-2 cell monolayers. Put plainly: Permeability of xanthohumol across Caco-2 cell monolayers. The format is in vitro ADME. As to conditions: for Percent Recovery: Caco-2, B-to-A, 2 μM in HBSSg, 37° C. As to the method:
Percent Recovery=100×((Vr×Cr^final)+(Vd×Cd^final))/(Vd×C0)
Where: • dCr/dt is the slope of the cumulative concentration in the receiver compartment versus time in μM s^−1. • Vr is the volume of the receiver compartment in cm^3. • Vd is the volume of the donor compartment in cm^3. • A is the area of the cell-free insert (1.13 cm^2 for 12-well Transwell). • Cr^final is the cumulative receiver concentration in μM at the end of the incubation period. • Cd^final is the concentration of the donor in μM at the end of the incubation period. • C0 is the initial concentration of the dosing solution in μM.
Each determination was performed in duplicate.
On the technique in general: Caco-2 cells form a polarised layer with tight junctions and transporters.

In data set [2] the test system is Caco-2 cell monolayers. Put plainly: Certification of Caco-2 Transwell plates with reference compounds. The format is in vitro ADME. As to conditions: plate certification TW12, passage 63, age 22 days. The protocol:
To test the permeability of xanthohumol across Caco-2 cell monolayers, Caco-2 cell monolayers were grown to confluence on collagen-coated, microporous, polycarbonate membranes in 12-well Costar Transwell® plates. Details of the plates and their certification are shown below in Table 3. The test article was also the aqueous xanthohumol formulation, and the dosing concentration was 2 μM in the assay buffer (HBSSg) as in the previous example. Cell monolayers were dosed on the apical side (A-to-B) or basolateral side (B-to-A) and incubated at 37° C. with 5% CO2 in a humidified incubator. Samples were taken from the donor chamber at 120 minutes, and samples from the receiver chamber were collected at 60 and 120 minutes. Each determination was performed in duplicate. Lucifer yellow permeability was also measured for each monolayer after being subjected to the test article to ensure no damage was inflicted to the cell monolayers during the permeability experiment. All samples were assayed for Xanthohumol by LC/MS/MS using electrospray ionization. The apparent permeability (Papp), and percent recovery were calculated as described above.

In the case of `COc1cc(O)c(CC=C(C)C)c(O)c1C(=O)/C=C/c1ccc(O)cc1` [Xanthohumol, 2′,4′,4-trihydroxy-6′-methoxy-3′-prenylchalcone], the “Significant Efflux” value in the data set on Caco-2 cell monolayers [1] (Caco-2) is given as “No”. The “Percent Recovery” value in the data set on Caco-2 cell monolayers [1] (Average) and with Caco-2 cell monolayers [1] (Rep. 1) was 81 each time. Besides, in the data set with Caco-2 cell monolayers [1] (Caco-2, classification by Papp(A-to-B)), the “Absorption Potential” value is on record as “Medium (1.0 × 10^−6 cm/s > Papp(A-to-B) ≧ 0.5 × 10^−6 cm/s Medium)”.
In general, Papp refers to a coefficient for how fast a substance crosses the barrier. Read a low Papp as poor permeation. Lucifer Yellow [reference compound]: the “Lucifer yellow Papp, post-experiment integrity control” value with Caco-2 cell monolayers [1] (all monolayers after exposure to the test article) is less than 0.8 ×10⁻⁶ cm/s. The compound also gave a Papp in the data set with Caco-2 cell monolayers [2] of 0.13 ×10⁻⁶ cm/s.

Source of the values: patent US20130123368A1, “METHODS OF REDUCING 15-F2T-ISOP LEVELS IN MAMMALS” (BIOACTIVES, INC., priority 2007, published 2013).
